Key:
Format in all cases: cell-based
[1] = biological target: T1, human Kv7.2/7.3 channels (Homo sapiens, UniProt O43525+O43526); experiment: Syncropatch automated patch clamp, activation of recombinantly expressed human Kv7.2/7.3 (KCNQ2/3) channels in CHO cells; details: shift in G-V midpoint (Δ V0.5) vs concentration
T1 construct: expressed in transfected cells
Experimental: The in vitro effects of a compound of the present application recombinantly expressed human Kv7.2/7.3 channels are assessed on Syncropatch high throughput electrophysiology platform.
CHO cells stably expressing human Kv7.2/7.3 channels were cultured in Ham's F-12 media (Hyclone, Cat # SH30022.02) supplemented with 10% Fetal Bovine Serum, 1×MEM non-essential amino acids, and 400 μg/ml G418 at 37° C. in 5% CO2. On the day of Syncropatch, the cells were washed once in DPBS (Hyclone, Cat # SH30028.03) for approximately 30 seconds. 1 ml of 1×0.015% Trypsin-EDTA GIBCO Cat #25300-054) was added and swirled around to cover the bottom of the flask, and allowed to sit on the cells for about 4 minutes (approximately 90% of the cells were lifted by light tapping of the flask). 10 ml of cold media (Ham's F-12 media (Hyclone, Cat # SH30022.02) supplemented with 10% Fetal Bovine Serum, 1×MEM non-essential amino acids, and 400 μg/ml G418) was added to inactivate Trypsin. The cells were then triturated until a single cell suspension was achieved, and the cell count was performed. The cells were then diluted to a concentration of 5×10^5/ml and placed into the “cell hotel” on the deck of the Syncropatch at 10° C. for about 1 hour to recover. 40 μL of the cell suspension was dispensed into each well of a 384-well Syncropatch chip by the onboard pipettor at the beginning of each Syncropatch assay.
The compounds to be tested were dissolved in DMSO to give 10 mM stock solutions. […]
Kv7 channels were evaluated using a voltage protocol in which cells were voltage-clamped at a holding potential of −110 mV. […]
Data was collected on the Syncropatch platform using PatchControl software (Nanion) and processed and analyzed using DataControl Software (Nanion). Normalized percent activation was calculated and activation curves were fit with a Boltzmann function to determine the midpoint voltage of activation (G-V midpoint) for both pre-compound and post-compound conditions for each of the 384-wells of a sealchip with Pipeline Pilot (Accelrys). […]

[2] = biological target: KCNQ3/5 (Homo sapiens, UniProt O43525+Q9NR82); experiment: Automated patch clamp, activation of KCNQ3/5 channels; details: for Selectivity KCNQ3/5 EC50 / KCNQ2/3 EC50: ratio of EC50 values
Experimental: (§1) Electrophysiological studies of the compounds were performed using the Nanion SyncroPatch automated patch clamp platform.
(§2) Kv7 channels were evaluated using a voltage protocol in which cells were voltage-clamped at a holding potential of −110 mV. Potassium currents were activated with a series of voltage steps from −110 mV to +50 mV in 10 mV intervals with 5.5 seconds between successive voltage steps. Each voltage step was 3 seconds in duration and immediately followed by a 1 second voltage step to −120 mV to generate an inward “tail” current to allow construction of activation (G-V) curves by plotting normalized peak tail current versus the potential of the activating voltage step. To obtain normalized values, peak current amplitudes for successive depolarizing pulses were normalized against the maximum tail current amplitude generated at +50 mV (Tatulian et al., Journal of Neuroscience 2001, 21 (15)).
(§3) Data was collected on the Syncropatch platform using PatchControl software (Nanion) and processed and analyzed using DataControl Software (Nanion). Normalized percent activation was calculated and activation curves were fit with a Boltzmann function to determine the midpoint voltage of activation (G-V midpoint) for both pre-compound and post-compound conditions for each of the 384-wells of a sealchip with Pipeline Pilot (Accelrys). The difference in G-V midpoint between pre-compound and post-compound conditions (Δ V0.5) was plotted as a function of concentration and concentration-response curves were fit with a three-parameter logistic equation {Y=Bottom+(Top−Bottom)/(1+10^(Log EC50−X))} for determination of the EC50 (Graphpad Prism).

[3] = biological target: KCNQ4 (Homo sapiens, UniProt P56696); experiment: Automated patch clamp, activation of KCNQ4 channels; details: for Selectivity KCNQ4 EC50 / KCNQ2/3 EC50: ratio of EC50 values
Experimental: as §1, §2, §3

| SMILES | EC50 [1] [nM] | EC50 [2] [nM] | Selectivity KCNQ3/5 EC50 / KCNQ2/3 EC50 [2] | EC50 [3] [nM] | Selectivity KCNQ4 EC50 / KCNQ2/3 EC50 [3] |
| --- | --- | --- | --- | --- | --- |
| C#CCN(Cc1ccc(F)cc1)c1ccc(NC(=O)OCC)c(N)c1 [Control, reference compound] | < 100 | < 100 | I (I: <1) | 100 to 1000 | IV (IV: 10 to <50) |
| Cc1c(F)c(NCc2ccc(F)cc2)c(F)c(C)c1NC(=O)CC(C)(C)C [Compound 2, N-(3,5-difluoro-4-((4-fluorobenzyl)amino)-2,6-dimethylphenyl)-3,3-dimethylbutanamide] | < 100 | 100 to 1000 | IV (IV: 10 to <50) | 1000 to 10000 | V (V: 50 to <100) |
| Cc1c(F)c(N2CCc3cc(F)ccc3C2)c(F)c(C)c1NC(=O)CC(C)(C)C [Compound 1, N-(3,5-difluoro-4-(6-fluoro-3,4-dihydroisoquinolin-2 (1H)-yl)-2,6-dimethylphenyl)-3,3-dimethylbutanamide] | 100 to 1000 | 1000 to 10000 | III (III: 5 to <10) | ≥ 10000 | VI (VI: ≥100) |
